Assay results reported in patent US11767330B2, “Citrate salt, pharmaceutical compositions, and methods of making and using the same” (Foghorn Therapeutics Inc., priority 2021, dated 2023).

Legend:
Type in all cases: physicochemical
[1] = Dynamic vapor sorption (DVS) hygroscopicity
Experimental: Dynamic Vapor Sorption (DVS). DVS was performed using a Q5000SA. The sample (5-15 mg) was loaded into a metallic quartz sample pan, suspended from a microbalance, and exposed to a humidified stream of nitrogen gas. Weight changes were relative to a matching empty reference pan opposite the sample, suspended from the microbalance. One of two methods was used:
Method 1: The sample was held for a minimum of 10 min at each level and only progressed to the next humidity level if there was <0.002% change in weight between measurements (interval: 5 s) or 60 min had elapsed.

[2] = Stability at 40° C./75% RH for 1 week
Experimental: The humid environment was generated with saturated sodium chloride in water in a sealed container. After one week, the sample appeared pale-yellow upon inspection.
(§1) The one-week stability at 75% RH was also tested. In this experiment, 12 mg of the dried crystalline freebase from MeOH were weighted in a 4 mL vial and placed in a 20 mL vial set at 40° C. and 75% RH for 1 week. The humid environment was generated with saturated sodium chloride in water in a sealed container.
as §1, with “the” for “the dried”, “was” for “were”

[3] = Physical stability by XRPD upon drying at 50° C. under vacuum and exposure to >95% RH
Experimental: (§2) X-Ray Powder Diffraction (XRPD). XRPD was performed using a Rigaku MiniFlex 600 in reflection mode (i.e., Bragg-Brentano geometry). Samples were prepared on Si zero-return wafers.
XRPD analysis was done in three stages. XRPD of the wet cake was done for all samples where solids were observed.
(§3) The solids were then exposed to >95% RH overnight. This humid environment was produced by placing a beaker of saturated potassium sulfate in water in a sealed container at RT. The materials exposed to these conditions were evaluated by XRPD, and their patterns were compared to those produced before.
as §3, with “The pattern FF-B was dried at 50° C. under vacuum for 3 h after filtration for further XRPD analysis. The solids” for “The solids”, “to those of the crystalline freebase along each step.” for “to those produced before.”

[4] = Solid form characterisation (TGA/DSC, KF, XRPD, HPLC chemical and chiral purity); conditions: initial, before stability test
Experimental: Differential Scanning Calorimetry (DSC). DSC was performed using a Mettler Toledo DSC^3+. The sample (1-5 mg) was weighed directly in a 40 μL hermetic aluminum pan with a pinhole and analyzed according to the parameters in Tables 41 and 42.
High Performance Liquid Chromatography (HPLC). HPLC was conducted using an Agilent 1220 Infinity LC or Agilent 1220 Infinity 2 LC equipped with diode array detector (DAD). Flow rate range of the instrument is 0.2-5.0 mL/min, operating pressure range is 0-600 bar, temperature range is 5° C. above ambient to 60° C., and wavelength range is 190-600 nm.
Karl Fischer (KF) Titration. KF titration for water determination was performed using a Mettler Toledo C20S Coulometric KF Titrator equipped with a current generator cell with a diaphragm, and a double-platinum-pin electrode. The range of detection of the instrument is 1 ppm to 5% water. Aquastar™
CombiCoulomat fritless reagent was used in both the anode and cathode compartments. Samples of approximately 0.03-0.10 g were dissolved in the anode compartment and titrated until the solution potential dropped below 100 mV. Hydranal 1 wt. % water standard was used for validation prior to sample analysis.
Simultaneous Thermogravimetric Analysis and Differential Scanning Calorimetry (TGA and DSC). TGA and DSC were performed on the same sample simultaneously using a Mettler Toledo TGA/DSC^3+. Protective and purge gas was nitrogen at a flowrate of 20-30 mL/min and 50-100 mL/min, respectively. The desired amount of sample (5-10 mg) was weighed directly in a hermetic aluminum pan with pinhole and analyzed according to the parameters below:
as §2
XRPD was performed using a Bruker D8 Advance equipped with LYNXEYE detector in reflection mode (i.e., Bragg-Brentano geometry). Samples were prepared on Si zero-return wafers.

[5] = Forced degradation study of compound S-D1 (chiral HPLC)
Experimental: Sample solution stock was prepared by weighing 501.53 mg of compound S-D1 to a 100 mL volumetric flask, dissolving by ultrasonic in 50 mL of diluent 2, diluting to volume with diluent 2, and mixing well.
Unstressed sample solution was prepared by weighing 50.83 mg of compound S-D1 into a 100 mL volumetric flask, dissolving by ultrasonic in 50 mL of diluent 2, diluting to volume with diluent 2, and mixing well.
Sample solution for pH=4.0 solution stability was prepared as follows. 50.79 mg of compound S-D1 were weighed into a 100 mL volumetric flask, dissolved by ultrasonic in 50 mL of pH=4.0 50 mM sodium citrate buffer (see above), diluted to volume with pH=4.0 50 mM sodium citrate buffer, and mixed well.
Sample solution for pH=5.0 solution stability was prepared as follows. 50.66 mg of the compound of Formula I were weighed into a 100 mL volumetric flask, dissolved by ultrasonic in 50 mL of pH=5.0 50 mM sodium citrate buffer (see above), diluted to volume with 50 mL of pH=5.0 50 mM sodium citrate buffer and mixed well.
Sample solution for pH=7.0 solution stability was prepared as follows. 50.78 mg of compound S-D1 and 680.42 mg KH2PO4 were weighed into a 100 mL volumetric flask, dissolved by ultrasonic in 50 mL of diluent 1, transferred 29.1 mL of the 0.1N NaOH (see above), diluted to volume with diluent 1, and mixed well.
(§4) Acid degradation (1N HCl at RT). 3 mL of the sample stock solution (see above) into an 8 mL vial, added 3 mL of 2N HCl solution, and mixed well. Samples were prepared in quadruplicate and kept at room temperature (RT). At the sampling time point, 1 mL of the sample was transferred into a 5 mL volumetric flask, neutralized with 0.5 mL of […], diluted to volume with diluent 2, and mixed well.
as §4, with “Basic” for “Acid”, “(0.15N NaOH” for “(1N HCl”, “0.3N NaOH” for “2N HCl”
Thermal stress degradation (50° C. for solid). Approximately 150 mg of compound S-D1 were weighed into an 8 mL vial. Multiple samples were prepared and placed in an oven at 50° C. At the sampling time points, each of the 50.57 mg, 50.84 mg, and 50.84 mg samples were transferred into their respective 100 mL volumetric flasks, dissolved by ultrasonic in 50 mL of diluent 2, diluted to volume with diluent 2, and mixed well.
Solution Stability. The study was performed according to the conditions outlined in Table 15 using sample solution for pH=4.0 solution stability, sample solution for pH=5.0 solution stability, and sample solution for pH=7.0 solution stability (see above).

[6] = Acid Hydrolysis, 1N HCl RT, 0 h
[7] = Acid Hydrolysis, 1N HCl RT, 1 d
[8] = Acid Hydrolysis, 1N HCl RT, 2 d
[9] = Acid Hydrolysis, 1N HCl RT, 3 d
[10] = Base Hydrolysis, 0.15 N NaOH RT, 0 h
[11] = Base Hydrolysis, 0.15 N NaOH RT, 1 h
[12] = Solution Stability, pH = 4.0, 50 mM Sodium citrate buffer at RT, 0 h
[13] = Solution Stability, pH = 4.0, 50 mM Sodium citrate buffer at RT, 1 d
[14] = Solution Stability, pH = 4.0, 50 mM Sodium citrate buffer at RT, 2 d
[15] = Solution Stability, pH = 4.0, 50 mM Sodium citrate buffer at RT, 3 d
[16] = Solution Stability, pH = 5.0 50 mM Sodium citrate buffer at RT, 0 h
[17] = Solution Stability, pH = 5.0 50 mM Sodium citrate buffer at RT, 1 d
[18] = Solution Stability, pH = 5.0 50 mM Sodium citrate buffer at RT, 2 d
[19] = Solution Stability, pH = 5.0 50 mM Sodium citrate buffer at RT, 3 d
[20] = Solution Stability, pH = 7.0 Phosphate buffer at RT, 0 h
[21] = Solution Stability, pH = 7.0 Phosphate buffer at RT, 1 d
[22] = Solution Stability, pH = 7.0 Phosphate buffer at RT, 2 d
[23] = Solution Stability, pH = 7.0 Phosphate buffer at RT, 3 d

With COc1cc(-c2cn(C)c(=O)c3cnc(N4CCC4)cc23)cc(OC)c1CN1CCC(CN2CCC3(CC2)CN(c2ccc4c(c2)C(=O)N([C@@H]2CCC(=O)NC2=O)C4)C3)CC1.O=C(O)CC(O)(CC(=O)O)C(=O)O [Citrate of Compound R-D1] the “HPLC chemical purity after DVS analysis” value [1] was 99.55%, the “XRPD after DVS analysis” value [1] was “did not show conversion to a crystalline pattern after performing the DVS analysis” and the “hygroscopicity according to the European Pharmacopeia standards (DVS)” value [1] was “very hygroscopic”. For the same compound, the “Hygroscopicity by DVS (up to 95% RH)” value ([1]; mass change up to 95% RH) was greater than 25.55 wt. %, the “Purity by HPLC (%) After 1 week 75% RH chemical” value ([2]; 40° C./75% RH) was 99.12% and the “XRPD pattern Dry” value ([3]; after drying, Am = amorphous) was “Am”. The “XRPD pattern Humid” value ([3]; after exposure to humidity, Am = amorphous) was “Am”, the “XRPD pattern Wet” value ([3]; solid form of compound R-D1, Am = amorphous) was “Am” and the “Purity by HPLC (%) [chiral]” value [4] was “[99.05] %”. The “Purity by HPLC (%) chemical” value [4] was 99.46%.
With COc1cc(-c2cn(C)c(=O)c3cnc(N4CCC4)cc23)cc(OC)c1CN1CCC(CN2CCC3(CC2)CN(c2ccc4c(c2)C(=O)N([C@H]2CCC(=O)NC2=O)C4)C3)CC1 [S-D1] the “% Degradation” value [5, 6] was 0.002%, the “Area % (R-D1)” value [5, 6] was 0.825% and the “Area % (S-D1)” value [5, 6] was 99.176%. The “% Degradation” value [5, 7] was 0.005%, the “Area % (R-D1)” value [5, 7] was 0.828% and the “Area % (S-D1)” value [5, 7] was 99.172%. The “% Degradation” value [5, 8] was 0.011%, the “Area % (R-D1)” value [5, 8] was 0.834% and the “Area % (S-D1)” value [5, 8] was 99.166%. The “% Degradation” value [5, 9] was 0.016%, the “Area % (R-D1)” value [5, 9] was 0.839% and the “Area % (S-D1)” value [5, 9] was 99.161%. For the same compound, the “% Degradation” value [5, 10] was 18.260%, the “Area % (R-D1)” value [5, 10] was 19.083% and the “Area % (S-D1)” value [5, 10] was 80.917%. The “% Degradation” value [5, 11] was 52.210%, the “Area % (R-D1)” value [5, 11] was 53.033% and the “Area % (S-D1)” value [5, 11] was 46.967%. For the same compound, the “% Degradation” value [5, 12] was 0.098%, the “Area % (R-D1)” value [5, 12] was 0.921% and the “Area % (S-D1)” value [5, 12] was 99.079%. For the same compound, the “% Degradation” value [5, 13] was 0.139%, the “Area % (R-D1)” value [5, 13] was 0.962% and the “Area % (S-D1)” value [5, 13] was 99.038%. The “% Degradation” value [5, 14] was 0.301%, the “Area % (R-D1)” value [5, 14] was 1.124% and the “Area % (S-D1)” value [5, 14] was 98.876%. The “% Degradation” value [5, 15] was 0.482%, the “Area % (R-D1)” value [5, 15] was 1.305% and the “Area % (S-D1)” value [5, 15] was 98.695%. The “% Degradation” value [5, 16] was 0.648%, the “Area % (R-D1)” value [5, 16] was 1.471% and the “Area % (S-D1)” value [5, 16] was 98.529%. For the same compound, the “% Degradation” value [5, 17] was 1.038%, the “Area % (R-D1)” value [5, 17] was 1.861% and the “Area % (S-D1)” value [5, 17] was 98.139%. The “% Degradation” value [5, 18] was 1.407%, the “Area % (R-D1)” value [5, 18] was 2.230% and the “Area % (S-D1)” value [5, 18] was 97.770%. For the same compound, the “% Degradation” value [5, 19] was 2.002%, the “Area % (R-D1)” value [5, 19] was 2.825% and the “Area % (S-D1)” value [5, 19] was 97.175%. For the same compound, the “% Degradation” value [5, 20] was 10.732%, the “Area % (R-D1)” value [5, 20] was 11.555% and the “Area % (S-D1)” value [5, 20] was 88.445%. For the same compound, the “% Degradation” value [5, 21] was 18.922%, the “Area % (R-D1)” value [5, 21] was 19.745% and the “Area % (S-D1)” value [5, 21] was 80.255%. For the same compound, the “% Degradation” value [5, 22] was 27.551%, the “Area % (R-D1)” value [5, 22] was 28.374% and the “Area % (S-D1)” value [5, 22] was 71.626%. For the same compound, the “% Degradation” value [5, 23] was 35.103%, the “Area % (R-D1)” value [5, 23] was 35.926% and the “Area % (S-D1)” value [5, 23] was 64.074%. For the same compound, the “% Degradation” value ([5]; Thermal, 50° C. (solid), 1 d) was 0.178%, the “Area % (R-D1)” value ([5]; Thermal, 50° C. (solid), 1 d) was 1.001% and the “Area % (S-D1)” value ([5]; Thermal, 50° C. (solid), 1 d) was 98.999%. The “% Degradation” value ([5]; Thermal, 50° C. (solid), 3 d) was 0.331%, the “Area % (R-D1)” value ([5]; Thermal, 50° C. (solid), 3 d) was 1.154% and the “Area % (S-D1)” value ([5]; Thermal, 50° C. (solid), 3 d) was 98.847%. For the same compound, the “% Degradation” value ([5]; Thermal, 50° C. (solid), 7 d) was 0.380%, the “Area % (R-D1)” value ([5]; Thermal, 50° C. (solid), 7 d) was 1.203% and the “Area % (S-D1)” value ([5]; Thermal, 50° C. (solid), 7 d) was 98.797%. For the same compound, the “Area % (R-D1)” value ([5]; Unstressed) was 0.823% and the “Area % (S-D1)” value ([5]; Unstressed) was 99.177%.
With COc1cc(-c2cn(C)c(=O)c3cnc(N4CCC4)cc23)cc(OC)c1CN1CCC(CN2CCC3(CC2)CN(c2ccc4c(c2)C(=O)N([C@@H]2CCC(=O)NC2=O)C4)C3)CC1.O=C(O)CC(O)(CC(=O)O)C(=O)O [citrate-A] the “physical stability (XRPD) upon drying at 50° C. under vacuum and exposure to >95% RH” value [3] was “became amorphous after drying and exposure to RH”.
In the case of COc1cc(-c2cn(C)c(=O)c3cnc(N4CCC4)cc23)cc(OC)c1CN1CCC(CN2CCC3(CC2)CN(c2ccc4c(c2)C(=O)N([C@@H]2CCC(=O)NC2=O)C4)C3)CC1 [crystal pattern FF-A], the XRPD after storage ([2]; 40° C. and 75% RH) is reported as “converted to compound R-D1, crystal pattern FF-B”.
